Laboratory results: US20190127314A1, “HOMOVANILLIC ACID ESTER FOR REDUCING OR INHIBITING FATTY ACID ABSORPTION IN THE SMALL INTESTINE” (SYMRISE AG, priority 2016, published 2019)

System: differentiated Caco-2-cells
Assay: Intestinal fatty acid resorption, QBT Fatty Acid Uptake Kit (BODIPY-dodecanoic acid)
Type: cell-based
Conditions: Homo sapiens, fatty acid resorption AUC as percent of the vehicle treated control, 30 min preincubation, fluorescence measured over 1 h; for activity at 1 µM: 1 μM substance; for activity at 100 µM: 100 μM substance
Excerpt: The ability of modulating the fatty acid resorption/absorption (as described in the scope of the present invention) of a substance or substance mixture can be determined or, respectively, evaluated e.g. according to the method described herein, by using Caco-2-cells (s. also the example section of the present text). Preferably, in the scope of the present text it is to be assumed that substances reducing or, respectively, inhibiting the fatty acid resorption (preferably when performing the method described herein, s. example section) are also suitable for the uses or, respectively, applications according to the invention and described herein. Preferably, the human colon cell line Caco-2 (ATCC-number HTB-37) is used, after differentiation to a phenotype related to entereocytes, as cell model for the resorption of free fatty acids into the small intestine. (Caco-2-cells are preferably cultivated at 37° C. and 5% CO2 content with Dulbecco's Modified Eagles Medium (DMEM) with 10% FBS, 2% L-Glutamine and 1% Penicillin/Streptomycin. The differentiation to enterocytes is preferably performed by an 18-days cultivation of the cells after reaching confluence.)
The resorption of free fatty acids in differentiated Caco-2-cells was analysed with the QBT Fatty Acid Uptake Kit (Molecular Devices Corporation, Germany), which uses the fluorescent fatty acid analogue BODIPY-dodecanoic acid. For preparing the assay, the differentiated Caco-2-cells are subjected to a one hour incubation in serum-free medium at standard cell culture conditions of a hunger phase. Subsequently, the test substances were added at 1 or 100 μM, diluted in Hank's balanced salt solution (HBSS of Lonza, Biozym-order number 882010)-buffer, treated with 20 mM HEPES (diluted from a 1M solution of Gibco, Thermo Fisher-order number 15630056) (in the following described as HBSS/HEPES-buffer). Controls were only treated with HBSS/HEPES-buffer. After a 30 minute preincubation at 37° C., the fluorescent fatty acid analogue was added, which was diluted in HBSS/HEPES-buffer (supplemented with 0.2% fatty acid free BSA [Sigma Aldrich, Germany]). The fluorescence signals were measured after excitation with 485 nm at an emission wavelength of 515 nm during a time of 1 h in a microtiter plate-reader (Synergy; BioTek, Germany). Starting from a time-signal-intensity curve resulting from the measurement, the area under the curve (AUC) was calculated to determine the cellular fatty acid resorption after treatment with the substances. The results obtained thereby are indicated as percent related to the control treatment (s. table 1).
Table 1: Results of the measurement of the inhibition of the fatty acid resorption in Caco-2-cells. The calculated area under the curve (AUC) is shown for tests at each 1 and 100 μM substance used (as percent of the vehicle treated control).
With the test for measurement shown in example 2, in total 25 compounds of formula (I) (as described herein) were measured for their inhibitory activity regarding the fatty acid resorption in Caco-2-cells for each two concentrations (1 and 100 μM) in triple determination. The obtained activity data was subsequently used for a structure-effect-analysis by using the software-package StarDrop (Optibrium Ltd) and Vortex (Dotmatics Ltd.). Thereby, an R-group analysis with the basic structure according to formula (II) was performed.

CCCOC(=O)Cc1ccc(O)c(OC)c1 [Compound 17, Propyl-2-(4-hydroxy-3-methoxy-phenyl)acetate]
activity at 1 µM: 101%
activity at 100 µM: 89.7%

CCC(CC)COC(=O)Cc1ccc(O)c(OC)c1 [Compound 23, 2-Ethylbutyl-2-(4-hydroxy-3-methoxy-phenyl)acetate]
activity at 1 µM: 99.7%
activity at 100 µM: 62.1%

COc1cc(CC(=O)OCC=C(C)C)ccc1O [Compound 4, 3-Methylbut-2-enyl-2-(4-hydroxy-3-methoxy-phenyl)acetate]
activity at 1 µM: 101%
activity at 100 µM: 80.9%

COc1cc(CC(=O)OC/C=C/c2ccccc2)ccc1O [Compound 2, [(E)-Cinnamyl]-2-(4-hydroxy-3-methoxy-phenyl)acetate]
activity at 1 µM: 97.6%
activity at 100 µM: 94.6%

COc1cc(CC(=O)O[C@@H]2C[C@H](C)CC[C@H]2C(C)C)ccc1O [Compound 15, (2-Isopropyl-5-methyl-cyclohexyl)-2-(4-hydroxy-3-methoxy-phenyl)acetate]
activity at 1 µM: 95.5%
activity at 100 µM: 58.1%

COc1cc(CC(=O)OCCC(C)C)ccc1O [Compound 10, Isopentyl-2-(4-hydroxy-3-methoxy-phenyl)acetate]
activity at 1 µM: 99.8%
activity at 100 µM: 82.7%

COc1cc(CC(=O)OCC(C)C)ccc1O [Compound 9, Isobutyl-2-(4-hydroxy-3-methoxy-phenyl)acetate]
activity at 1 µM: 100%
activity at 100 µM: 68%

CCOC(=O)Cc1ccc(O)c(OC)c1 [Compound 16, Ethyl-2-(4-hydroxy-3-methoxy-phenyl)acetate]
activity at 1 µM: 105%
activity at 100 µM: 93.8%

CCCCCOC(=O)Cc1ccc(O)c(OC)c1 [Compound 19, Pentyl-2-(4-hydroxy-3-methoxy-phenyl)acetate]
activity at 1 µM: 101%
activity at 100 µM: 92.9%

COc1cc(CC(=O)OCCc2ccccc2)ccc1O [Compound 1, 2-Phenylethyl-2-(4-hydroxy-3-methoxy-phenyl)acetate]
activity at 1 µM: 103%
activity at 100 µM: 103%

CCCCCC(C)OC(=O)Cc1ccc(O)c(OC)c1 (stereo not drawn) [Compound 14, 1-Methyl hexyl-2-(4-hydroxy-3-methoxy-phenyl)acetate]
activity at 1 µM: 93.4%
activity at 100 µM: 67.5%

CCCCC(C)OC(=O)Cc1ccc(O)c(OC)c1 (stereo not drawn) [Compound 12, 1-Methylpentyl-2-(4-hydroxy-3-methoxy-phenyl)acetate]
activity at 1 µM: 89.5%
activity at 100 µM: 53.3%

CCCCCCCOC(=O)Cc1ccc(O)c(OC)c1 [Compound 13, Heptyl-2-(4-hydroxy-3-methoxy-phenyl)acetate]
activity at 1 µM: 103%
activity at 100 µM: 92.7%

CCCCCCOC(=O)Cc1ccc(O)c(OC)c1 [Compound 20, Hexyl-2-(4-hydroxy-3-methoxy-phenyl)acetate]
activity at 1 µM: 102%
activity at 100 µM: 91.4%

CC/C=C\CCOC(=O)Cc1ccc(O)c(OC)c1 [Compound 6, [(Z)-Hex-3-enyl]-2-(4-hydroxy-3-methoxy-phenyl)acetate]
activity at 1 µM: 99.9%
activity at 100 µM: 90.4%

CCC(C)OC(=O)Cc1ccc(O)c(OC)c1 (stereo not drawn) [Compound 8, sec-Butyl-2-(4-hydroxy-3-methoxy-phenyl)acetate]
activity at 1 µM: 92%
activity at 100 µM: 61.9%

CCC/C=C/COC(=O)Cc1ccc(O)c(OC)c1 [Compound 5, [(E)-Hex-2-enyl]-2-(4-hydroxy-3-methoxy-phenyl)acetate]
activity at 1 µM: 101%
activity at 100 µM: 96.5%

CCC(C)COC(=O)Cc1ccc(O)c(OC)c1 (stereo not drawn) [Compound 11, 2-Methylbutyl-2-(4-hydroxy-3-methoxy-phenyl)acetate]
activity at 1 µM: 99%
activity at 100 µM: 79%

CCCCOC(=O)Cc1ccc(O)c(OC)c1 [Compound 18, Butyl-2-(4-hydroxy-3-methoxy-phenyl)acetate]
activity at 1 µM: 102%
activity at 100 µM: 90.7%

CCCC(CC)OC(=O)Cc1ccc(O)c(OC)c1 (stereo not drawn) [Compound 3, 1-Ethylbutyl-2-(4-hydroxy-3-methoxy-phenyl)acetate]
activity at 1 µM: 87.1%
activity at 100 µM: 62.5%

COc1cc(CC(=O)OC(C)C)ccc1O [Compound 7, Isopropyl-2-(4-hydroxy-3-methoxy-phenyl)acetate]
activity at 1 µM: 91.6%
activity at 100 µM: 61.6%
